The text below walks through data of ChEMBL document CHEMBL5727906, “Adenosine A3 receptor modulators” (2020).

One assay deals with T1, Adenosine receptor A3 (Homo sapiens, UniProt P0DMS8).
T1 sequence (P0DMS8 whole entry): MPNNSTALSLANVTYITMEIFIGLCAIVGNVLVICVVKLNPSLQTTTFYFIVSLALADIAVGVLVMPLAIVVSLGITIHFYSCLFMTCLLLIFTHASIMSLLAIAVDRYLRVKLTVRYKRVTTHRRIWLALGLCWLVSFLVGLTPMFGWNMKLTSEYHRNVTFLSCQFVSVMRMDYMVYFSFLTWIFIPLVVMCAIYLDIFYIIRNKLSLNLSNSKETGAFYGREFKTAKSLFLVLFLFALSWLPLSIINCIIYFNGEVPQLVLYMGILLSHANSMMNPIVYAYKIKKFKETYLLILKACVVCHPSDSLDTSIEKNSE
The assay can be described thus: Competition Radioligand Binding Assay: A3 Adenosine Receptor:Competitive assays were carried out by incubation of membranes from human A3 receptors transfected to CHO cells, [3H]-NECA, buffer (20 mM HEPES (pH 7.4), 100 mM NaCl, 10 mM MgCl2, 2 units/ml adenosine deaminase), and unlabelled ligand in a total volume of 0.2 ml for 60 min at 25° C. R-PIA was used to determine nonspecific binding. It was filtered over Schleicher & Schuell GF/52 (presoaked with 0.5% polyethyleneimine) in a Brandel cell harvester. The unbound radioligand was removed with 3×250 μl of 20 mM HEPES (pH 7.4), 100 mM NaCl, 10 mM MgCl2.

In a further assay the target is T2, Adenosine receptor A1 (Homo sapiens, UniProt P30542).
T2 sequence (P30542 whole entry): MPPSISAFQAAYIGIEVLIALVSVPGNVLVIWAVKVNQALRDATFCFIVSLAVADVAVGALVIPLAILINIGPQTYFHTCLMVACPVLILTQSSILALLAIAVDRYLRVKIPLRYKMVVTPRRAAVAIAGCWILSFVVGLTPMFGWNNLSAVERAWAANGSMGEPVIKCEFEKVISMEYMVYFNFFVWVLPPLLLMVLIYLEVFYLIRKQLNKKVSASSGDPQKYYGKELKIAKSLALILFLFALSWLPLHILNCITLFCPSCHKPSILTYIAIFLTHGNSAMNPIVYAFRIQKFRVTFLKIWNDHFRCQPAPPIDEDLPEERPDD
The assay can be described thus: Competition Radioligand Binding Assay: Adenosine A1 Receptor: Competition assays were carried out by incubation of human recombinant membranes of adenosine receptors from hA1 receptors transfected to CHO cells, [3H] DPCPX as radioligand, buffer (HEPES 20 mM (pH=7.4), 10 mM MgCl2, 100 mM NaCl, 2 U/mL of deaminase adenosine and non-labelled ligand in a total volume of 0.2 mL for 90 min at 25° C. R-PIA was used to determinate non-specific binding. Filter over Schleicher & Schuell GF/52 (pre-soaked 0.5% polyethylenimine) in a Brandel cell harvester. Unbound radioligand was removed with HEPES 30 mM (3×250 μl), NaCl (100 mM) and MgCl2 (10 mM).

For a further assay, the target named is T3, Adenosine receptor A2b (Homo sapiens, UniProt P29275).
T3 sequence (P29275 whole entry): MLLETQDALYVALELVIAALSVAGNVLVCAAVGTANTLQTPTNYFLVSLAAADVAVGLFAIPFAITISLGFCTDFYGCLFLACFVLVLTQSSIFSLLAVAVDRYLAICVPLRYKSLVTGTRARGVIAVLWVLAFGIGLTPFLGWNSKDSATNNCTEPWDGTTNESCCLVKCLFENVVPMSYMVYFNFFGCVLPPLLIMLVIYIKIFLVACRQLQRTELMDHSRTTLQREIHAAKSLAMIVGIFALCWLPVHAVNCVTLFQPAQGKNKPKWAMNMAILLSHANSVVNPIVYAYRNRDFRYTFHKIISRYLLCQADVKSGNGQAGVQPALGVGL
The assay can be described thus: Competition Radioligand Binding Assay: A2B Adenosine Receptor: The binding assay for adenosine A2B receptor subtype was carried out on human recombinant source (HEK-293 cells) and [3H]DPCPX as radioligand.

Another assay concerns the target Adenosine receptor A2a (Homo sapiens, UniProt P29274). The assay can be described thus: Competition Radioligand Binding Assay: A2A Adenosine Receptor: Competitive assays were carried out by incubation of membranes from human A2A receptors transfected to HeLa cells, [3H]-ZM241385, buffer (Tris-HCl 50 mM (pH=7.4), 10 mM MgCl2, EDTA 1 mM and 2 units/ml adenosine deaminase), and unlabelled ligand in a total volume of 0.2 ml for 60 min at 25° C. NECA was used to determine nonspecific binding. It was filtered over Schleicher & Schuell GF/52 (presoaked with 0.5% polyethyleneimine) in a Brandel cell harvester. The unbound radioligand was removed with 3×250 μl of 20 mM Tris-HCl 50 mM (pH=7.4), 10 mM MgCl2, EDTA 1 mM.

The structures appear in SMILES notation.

Sequence of Adenosine receptor A2a (P29274 whole entry): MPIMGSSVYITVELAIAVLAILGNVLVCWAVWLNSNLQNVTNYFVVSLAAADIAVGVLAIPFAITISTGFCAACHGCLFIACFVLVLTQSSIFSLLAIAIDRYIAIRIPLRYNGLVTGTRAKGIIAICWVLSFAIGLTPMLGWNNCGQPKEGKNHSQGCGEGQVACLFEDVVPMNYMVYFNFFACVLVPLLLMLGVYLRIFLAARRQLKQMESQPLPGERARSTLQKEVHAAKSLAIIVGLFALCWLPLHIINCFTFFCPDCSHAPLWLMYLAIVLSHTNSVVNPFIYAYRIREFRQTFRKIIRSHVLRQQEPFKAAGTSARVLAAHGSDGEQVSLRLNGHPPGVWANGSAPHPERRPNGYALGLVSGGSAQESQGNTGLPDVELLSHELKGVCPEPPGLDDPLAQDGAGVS

The Ki is the dissociation constant of the complex between target and ligand, obtained from inhibition or displacement. For `COc1ccc(-c2nc(NC(=O)c3ccc(N4CCC(C(=O)O)CC4)nc3)sc2C#N)cc1`, the Ki was 0.0476 µM on Adenosine receptor A3, > 1 µM on Adenosine receptor A1, > 1 µM on Adenosine receptor A2b and > 1 µM on Adenosine receptor A2a.
